Source: patent US11702427B2 (priority 2018, dated 2023)

test system: HBsAg; assay: HBsAg assay: inhibition of HBsAg in HepG2.2.15 cells (CLIA immunoassay of supernatant); type: cell-based, hepatitis B virus (HBV); details: Hepatitis B virus, HepG2.2.15, 144 h, read-out: sAg EC50, HepG2.2.15 cells; supernatant collected at day 6 after exposure; HBsAg chemiluminescence immunoassay
Protocol: Inhibition of HBsAg was determined in HepG2.2.15 cells. Cells were maintained in culture medium containing 10% fetal calf serum, […], Glutamine, penicillin/streptomycin. Cells were seeded in 96-well collagen-coated plate at a density of 30,000 cells/well. Serially diluted compounds were added to cells next day at the final DMSO concentration of 0.5%. Cells were incubated with compounds for 2-3 days, after which medium was removed. Fresh medium containing compounds was added to cells for additional 3-4 days. At day 6 after exposure of compounds, supernatant was collected, the HBsAg immunoassay (microplate-based chemiluminescence immunoassay kits, CLIA, Autobio Diagnosics Co., Zhengzhou, China, Catalog #CL0310-2) was used to determine the level of HBsAg according to manufactory instruction. Dose-response curves were generated and the EC50 value (effective concentrations that achieved 50% inhibitory effect) were determined using XLfit software. In addition, cells can be seeded at a density of 5,000 cells/well for determination of cell viability in the presence and absence of compounds by using CellTiter-Glo reagent (Promega). Tables 1-3 show EC50 values obtained by the HBsAg assay for selected compounds.

Row | Structure (SMILES) | EC50
1 | COCCCOc1cc2c(nc1C1CC1)-c1[nH]c(=O)c(C(=O)O)c(O)c1C(C(C)C)C2 (stereo not drawn) [Example 49, 9-Cyclopropyl-4-hydroxy-5-isopropyl-8-(3-methoxypropoxy)-2-oxo-1,2,5,6-tetrahydro-1,10-phenanthroline-3-carboxylicacid] | 1 nM
2 | CCCc1nc2c(cc1OCCCOC)CC(C(C)C)c1c-2[nH]c(=O)c(C(=O)O)c1O (stereo not drawn) [Example 50, 4-Hydroxy-5-isopropyl-8-(3-methoxypropoxy)-2-oxo-9-propyl-1,2,5,6-tetrahydro-1,10-phenanthroline-3-carboxylic acid] | 2 nM
3 | COCCCOc1cc2c(nc1NCCOC)-c1[nH]c(=O)c(C(=O)O)c(O)c1C(C(C)C)C2 (stereo not drawn) [Example 51, 4-Hydroxy-5-isopropyl-9-((2-methoxyethyl)amino)-8-(3-methoxypropoxy)-2-oxo-1,2,5,6-tetrahydro-1,10-phenanthroline-3-carboxylicacid] | 10000 nM
4 | COCCCOc1cc2c(nc1NCCOC)-c1[nH]c(=O)c(C(=O)NCCOC)c(O)c1C(C(C)C)C2 (stereo not drawn) [Example 52, 4-Hydroxy-5-isopropyl-N-(2-methoxyethyl)-9-((2-methoxyethyl)amino)-8-(3-methoxypropoxy)-2-oxo-1,2,5,6-tetrahydro-1,10-phenanthroline-3-carboxamide] | 13000 nM
5 | CNc1nc2c(cc1OCCCOC)CC(C(C)C)c1c-2[nH]c(=O)c(C(=O)O)c1O (stereo not drawn) [Example 53, 4-Hydroxy-5-isopropyl-8-(3-methoxypropoxy)-9-(methylamino)-2-oxo-1,2,5,6-tetrahydro-1,10-phenanthroline-3-carboxylic acid] | 15 nM
6 | COCCCOc1cc2c(nc1N(C)C)-c1[nH]c(=O)c(C(=O)O)c(O)c1C(C(C)C)C2 (stereo not drawn) [Example 54, 9-(Dimethylamino)-4-hydroxy-5-isopropyl-8-(3-methoxypropoxy)-2-oxo-1,2,5,6-tetrahydro-1,10-phenanthroline-3-carboxylicacid] | 10 nM
7 | CNc1nc2c(cc1OCCCOC)CC(C(C)C)c1cc(C(=O)O)c(=O)[nH]c1-2 (stereo not drawn) [Example 55, 5-Isopropyl-8-(3-methoxypropoxy)-9-(methylamino)-2-oxo-1,2,5,6-tetrahydro-1,10-phenanthroline-3-carboxylicacid] | 2 nM
8 | COCCCOc1cc2c(nc1C1CC1)-c1[nH]c(=O)c(C(=O)O)cc1C(C(C)C)C2 (stereo not drawn) [Example 56, 9-Cyclopropyl-5-isopropyl-8-(3-methoxypropoxy)-2-oxo-1,2,5,6-tetrahydro-1,10-phenanthroline-3-carboxylicacid] | 1 nM
9 | COCCCOc1cc2c(cc1OC)-c1[nH]c(=O)c(-c3ncn[nH]3)c(O)c1C(C(C)C)C2 (stereo not drawn) [Example 57, 4-Hydroxy-5-isopropyl-9-methoxy-8-(3-methoxypropoxy)-3-(1H-1,2,4-triazol-5-yl)-5,6-dihydrobenzo[h]quinolin-2(1H)-one] | 11 nM
10 | COCCCOc1cc2c(cc1OC)-c1[nH]c(=O)c(C(N)=O)c(O)c1C(C(C)C)C2 (stereo not drawn) [Example 58, 4-Hydroxy-5-isopropyl-9-methoxy-8-(3-methoxypropoxy)-2-oxo-1,2,5,6-tetrahydrobenzo[h]quinoline-3-carboxamide] | 20 nM
11 | COCCCOc1cc2c(nc1OC)-c1[nH]c(=O)c(C(N)=O)c(O)c1C(C(C)(C)C)C2 (stereo not drawn) [Example 59, 5-(tert-Butyl)-4-hydroxy-9-methoxy-8-(3-methoxypropoxy)-2-oxo-1,2,5,6-tetrahydro-1,10-phenanthroline-3-carboxamide] | 3 nM
12 | COCCCOc1cc2c(nc1OC)-c1[nH]c(=O)c(C(N)=O)cc1C(C(C)(C)C)C2 (stereo not drawn) [Example 62, 5-(tert-Butyl)-9-methoxy-8-(3-methoxypropoxy)-2-oxo-1,2,5,6-tetrahydro-1,10-phenanthroline-3-carboxamide] | 25 nM
13 | CNC(=O)c1c(O)c2c([nH]c1=O)-c1nc(OC)c(OCCCOC)cc1CC2C(C)(C)C (stereo not drawn) [Example 63, 5-(tert-Butyl)-4-hydroxy-9-methoxy-8-(3-methoxypropoxy)-N-methyl-2-oxo-1,2,5,6-tetrahydro-1,10-phenanthroline-3-carboxamide] | 18 nM
14 | COCCCOc1cc2c(nc1OC)-c1[nH]c(=O)c(C(=O)N(C)C)c(O)c1C(C(C)(C)C)C2 (stereo not drawn) [Example 64] | 2000 nM
15 | COCCCOc1cc2c(nc1OC)-c1[nH]c(=O)c(C(=O)NO)c(O)c1C(C(C)(C)C)C2 (stereo not drawn) [Example 65, 5-(tert-Butyl)-N,4-dihydroxy-9-methoxy-8-(3-methoxypropoxy)-2-oxo-1,2,5,6-tetrahydro-1,10-phenanthroline-3-carboxamide] | 2 nM
16 | COCCCOc1cc2c(cc1OC)-c1[nH]c(=O)c(C(=O)NO)c(O)c1C(C(C)C)C2 (stereo not drawn) [Example 66, N,4-Dihydroxy-5-isopropyl-9-methoxy-8-(3-methoxypropoxy)-2-oxo-1,2,5,6-tetrahydrobenzo[h]quinoline-3-carboxamide] | 41 nM
17 | COCCCOc1cc2c(nc1OC)-c1[nH]c(=O)c(C(=O)NO)cc1C(C(C)(C)C)C2 (stereo not drawn) [Example 67, 5-(tert-Butyl)-N-hydroxy-9-methoxy-8-(3-methoxypropoxy)-2-oxo-1,2,5,6-tetrahydro-1,10-phenanthroline-3-carboxamide] | 5 nM
18 | COCCCOc1cc2c(nc1OC)-c1nc(Cl)c(C(=O)O)c(Cl)c1C(C(C)(C)C)C2 (stereo not drawn) [Example 68, 5-(tert-Butyl)-2,4-dichloro-9-methoxy-8-(3-methoxypropoxy)-5,6-dihydro-1,10-phenanthroline-3-carboxylicacid] | 10000 nM
19 | COCCCOc1cc2c(cc1Cl)-c1[nH]c(=O)c(C(=O)O)cc1[C@H](C(C)C)CO2 [Example 69, (S)-10-Chloro-5-isopropyl-9-(3-methoxypropoxy)-2-oxo-1,2,5,6-tetrahydrobenzo[2,3]oxepino[4,5-b]pyridine-3-carboxylicacid] | 200 nM
20 | COCCCOc1cc2c(cc1Cl)-c1[nH]c(=O)c(C(=O)O)c(O)c1[C@H](C(C)C)CO2 [Example 70, (S)-10-Chloro-4-hydroxy-5-isopropyl-9-(3-methoxypropoxy)-2-oxo-1,2,5,6-tetrahydrobenzo[2,3]oxepino[4,5-b]pyridine-3-carboxylic acid] | 120 nM
21 | COCCCOc1cc2c(cc1COC)-c1[nH]c(=O)c(C(=O)O)c(O)c1[C@H](C(C)C)CO2 [Example 71, (S)-4-Hydroxy-5-isopropyl-10-(methoxymethyl)-9-(3-methoxypropoxy)-2-oxo-1,2,5,6-tetrahydrobenzo[2,3]oxepino[4,5-b]pyridine-3-carboxylicacid] | 280 nM
22 | COCCCOc1cc2c(cc1CCOC)-c1[nH]c(=O)c(C(=O)O)c(O)c1[C@H](C(C)C)CO2 [Example 72, (S)-4-Hydroxy-5-isopropyl-10-(2-methoxyethyl)-9-(3-methoxypropoxy)-2-oxo-1,2,5,6-tetrahydrobenzo[2,3]oxepino[4,5-b]pyridine-3-carboxylic acid] | 600 nM
23 | COCCCOc1cc2c(cc1OC)-c1[nH]c(=O)c(C(=O)O)cc1C1(CCCCC1)C2 [Example 73, 9-Methoxy-8-(3-methoxypropoxy)-2-oxo-2,6-dihydro-1H-spiro[benzo[h]quinoline-5,1′-cyclohexane]-3-carboxylic acid] | 110 nM
24 | COCCCOc1cc2c(nc1Cl)-c1[nH]c(=O)c(C(=O)O)c(O)c1C(C(C)C)CO2 (stereo not drawn) [Example 74, 2-Chloro-8-hydroxy-7-isopropyl-3-(3-methoxypropoxy)-10-oxo-6,7,10,11-tetrahydrooxepino[3,2-b:4,5-b′]dipyridine-9-carboxylic acid] | 40 nM
25 | COCCCOc1cc2c(nc1C1CCOCC1)-c1[nH]c(=O)c(C(=O)O)c(O)c1C(C(C)C)CO2 (stereo not drawn) [Example 79, 8-Hydroxy-7-isopropyl-3-(3-methoxypropoxy)-10-oxo-2-(tetrahydro-2H-pyran-4-yl)-6,7,10,11-tetrahydrooxepino[3,2-b:4,5-b′]dipyridine-9-carboxylic acid] | 5000 nM
26 | COCCCOc1cc2c(nc1CCOC)-c1[nH]c(=O)c(C(=O)O)c(O)c1C(C(C)C)CO2 (stereo not drawn) [Example 84, 8-Hydroxy-7-isopropyl-2-(2-methoxyethyl)-3-(3-methoxypropoxy)-10-oxo-6,7,10,11-tetrahydrooxepino[3,2-b:4,5-b′]dipyridine-9-carboxylic acid] | 1200 nM
27 | COCCCOc1cc2c(cc1OC)-c1[nH]c(=O)c(C(=O)O)c(OC)c1C(C(C)C)C2 (stereo not drawn) [Example 87, 5-Isopropyl-4,9-dimethoxy-8-(3-methoxypropoxy)-2-oxo-1,2,5,6-tetrahydrobenzo[h]quinoline-3-carboxylicacid] | 85 nM
28 | COCCCOc1cc2c(cc1OC)-c1[nH]c(=O)c(C(=O)O)c(OCCOC)c1C(C(C)C)C2 (stereo not drawn) [Example 88, 5-Isopropyl-9-methoxy-4-(2-methoxyethoxy)-8-(3-methoxypropoxy)-2-oxo-1,2,5,6-tetrahydrobenzo[h]quinoline-3-carboxylic acid] | 4700 nM
29 | COCCCOc1cc2c(cc1OC)-c1[nH]c(=O)c(C(=O)O)c(OCCN(C)C)c1C(C(C)C)C2 (stereo not drawn) [Example 89, 4-(2-(Dimethylamino)ethoxy)-5-isopropyl-9-methoxy-8-(3-methoxypropoxy)-2-oxo-1,2,5,6-tetrahydrobenzo[h]quinoline-3-carboxylic acid] | 4600 nM
30 | COCCCOc1cc2c(cc1OC)-c1[nH]c(=O)c(C(=O)O)c(OCCO)c1C(C(C)C)C2 (stereo not drawn) [Example 90, 4-(2-Hydroxyethoxy)-5-isopropyl-9-methoxy-8-(3-methoxypropoxy)-2-oxo-1,2,5,6-tetrahydrobenzo[h]quinoline-3-carboxylicacid] | 11000 nM
